Reference: ChEMBL document CHEMBL3425421, “Chromone derivatives from a sponge-derived strain of the fungus Corynespora cassiicola” (J Nat Prod, 2015)
Calls of active or inactive are those of the source.

How the values were obtained:
HL-60 = test: Cytotoxicity against human HL60 cells by MTT assay; assay type: functional, cell-based
A549 = test: Cytotoxicity against human A549 cells by MTT assay; assay type: functional, cell-based
HeLa = test: Cytotoxicity against human HeLa cells by MTT assay; assay type: functional, cell-based
K562 = test: Cytotoxicity against human K562 cells by MTT assay; assay type: functional, cell-based
Bacillus cereus = test: Antibacterial activity against Bacillus cereus assessed as absence of growth after 18 hrs by conventional broth dilution assay; assay type: functional, organism-based
Bacillus subtilis = test: Antibacterial activity against Bacillus subtilis assessed as absence of growth after 18 hrs by conventional broth dilution assay; assay type: functional, organism-based
[1] = test system: Tetragenococcus halophilus; test: Antibacterial activity against Tetragenococcus halophilus assessed as absence of growth after 18 hrs by conventional broth dilution assay; assay type: functional
Staphylococcus = test: Antibacterial activity against Staphylococcus albus assessed as absence of growth after 18 hrs by conventional broth dilution assay; assay type: functional, organism-based
Staphylococcus aureus = test: Antibacterial activity against Staphylococcus aureus assessed as absence of growth after 18 hrs by conventional broth dilution assay; assay type: functional, organism-based
Pseudomonas putida = test: Antibacterial activity against Pseudomonas putida assessed as absence of growth after 18 hrs by conventional broth dilution assay; assay type: functional, organism-based
Vibrio parahaemolyticus = test: Antibacterial activity against Vibrio parahaemolyticus assessed as absence of growth after 18 hrs by conventional broth dilution assay; assay type: functional, organism-based
[2] = target: Acetylcholinesterase (Electrophorus electricus) (UniProt O42275); test: Inhibition of electric eel AChE using acetylthiocholine iodide as substrate by Ellman's method
[3] = target: T1, DNA topoisomerase (Bos taurus) (UniProt A0JN73); test: Inhibition of calf thymus Topoisomerase 1 relaxation activity by plasmid relaxation assay
T1 sequence (whole entry): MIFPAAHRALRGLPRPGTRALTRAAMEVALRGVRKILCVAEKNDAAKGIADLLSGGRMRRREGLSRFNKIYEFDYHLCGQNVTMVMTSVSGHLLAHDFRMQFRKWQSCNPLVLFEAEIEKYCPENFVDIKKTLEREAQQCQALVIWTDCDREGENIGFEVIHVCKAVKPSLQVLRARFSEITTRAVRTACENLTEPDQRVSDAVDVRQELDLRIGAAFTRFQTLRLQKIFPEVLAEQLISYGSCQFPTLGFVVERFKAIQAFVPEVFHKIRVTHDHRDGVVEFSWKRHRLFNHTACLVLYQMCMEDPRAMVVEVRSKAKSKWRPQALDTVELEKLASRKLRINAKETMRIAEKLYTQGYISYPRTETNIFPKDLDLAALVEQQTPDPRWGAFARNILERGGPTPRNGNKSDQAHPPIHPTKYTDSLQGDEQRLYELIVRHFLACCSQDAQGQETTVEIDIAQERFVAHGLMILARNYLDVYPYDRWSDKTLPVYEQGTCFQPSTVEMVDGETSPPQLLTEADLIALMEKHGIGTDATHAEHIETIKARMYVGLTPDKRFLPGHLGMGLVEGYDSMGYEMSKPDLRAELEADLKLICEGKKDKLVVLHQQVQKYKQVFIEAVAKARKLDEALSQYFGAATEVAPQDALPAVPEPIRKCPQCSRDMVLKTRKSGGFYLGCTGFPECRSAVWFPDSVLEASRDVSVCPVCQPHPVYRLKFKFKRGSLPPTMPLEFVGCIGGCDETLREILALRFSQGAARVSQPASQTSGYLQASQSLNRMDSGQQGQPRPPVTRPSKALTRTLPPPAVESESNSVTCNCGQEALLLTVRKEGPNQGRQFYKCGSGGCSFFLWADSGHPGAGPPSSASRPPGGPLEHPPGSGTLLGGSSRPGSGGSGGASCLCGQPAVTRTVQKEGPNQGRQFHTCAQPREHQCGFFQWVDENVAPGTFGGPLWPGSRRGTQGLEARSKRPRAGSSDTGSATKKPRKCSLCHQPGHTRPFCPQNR

Amphibalanus amphitrite = test: Antifouling activity against Balanus amphitrite Darwin; assay type: functional, organism-based

Measured: inhibition

Acetylcholinesterase (Electrophorus electricus), sequence (O42275 24-633 limits assumed): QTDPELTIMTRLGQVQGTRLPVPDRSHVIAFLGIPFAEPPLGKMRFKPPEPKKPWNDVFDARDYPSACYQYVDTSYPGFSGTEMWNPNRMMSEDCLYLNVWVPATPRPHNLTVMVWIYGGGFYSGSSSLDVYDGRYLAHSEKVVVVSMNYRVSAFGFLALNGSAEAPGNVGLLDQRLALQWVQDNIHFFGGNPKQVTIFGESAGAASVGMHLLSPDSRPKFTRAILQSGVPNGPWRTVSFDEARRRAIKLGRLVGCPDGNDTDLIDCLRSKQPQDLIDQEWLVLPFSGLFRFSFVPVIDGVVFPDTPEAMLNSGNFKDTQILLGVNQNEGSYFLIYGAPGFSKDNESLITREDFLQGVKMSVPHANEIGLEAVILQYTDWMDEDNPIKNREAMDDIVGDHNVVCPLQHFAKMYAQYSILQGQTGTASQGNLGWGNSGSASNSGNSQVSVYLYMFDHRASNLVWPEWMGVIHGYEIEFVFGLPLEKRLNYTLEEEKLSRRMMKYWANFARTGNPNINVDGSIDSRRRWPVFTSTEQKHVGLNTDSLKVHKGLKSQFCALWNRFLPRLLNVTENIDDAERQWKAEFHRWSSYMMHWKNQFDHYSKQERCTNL

CCOC(=O)Cc1cc(O)cc2oc(C)cc(=O)c12
inactive: all assays above
